Several values for one entry are separate records, joined by “and”; a condition that tells them apart may be missing. Equal values may be shown once. Read-outs that look alike come from different tables or passages of the source.
Tests used:
[1] = Pharmacokinetics assay in male CD-1 mice (plasma, LC-MS/MS, non-compartmental analysis); type: in vivo; details: for MRT inf: read-out: MRT0-inf; for MRT last: read-out: MRT0-last;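 for Plasma concentration: plasma concentration of test compound at each sampling time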
Method: Pharmacokinetics Assay. A pharmacokinetics assay of Example 1 was performed by WuXi AppTec Inc., 6 Cedarbrook Drive, Cranbury, NJ 08512 USA. This study was conducted in 6 to 8-week-old male CD-1 mice (Hilltop Laboratories). Animals were group housed during acclimation and throughout the study. The animal room environment was controlled according to facility operation (temperature: 20 to 26° C.; relative humidity: 30 to 70%; lighting: 12 hour light/dark cycle). Temperature, relative humidity, and lighting were monitored by PointView Environmental Monitoring System. Animals were fed certified pellet diet (Certified Rodent Diet #5002, LabDiet). The diet lot number and specifications were recorded in study notebook and archived at WuXi AppTec. Water (reverse osmosis) was provided to the animals ad libitum. The animals were fasted overnight and food was returned 4 hours post-dose.
An appropriate amount of Example compound 1 above (N^1-(3,5-Dimethoxyphenyl)-N^2-isopropyl-N^1-(3-(1-methyl-1H-pyrazol-4-yl)cinnolin-6-yl)ethane-1,2-diamine) was accurately weighed and mixed with an appropriate volume of 20% hydroxypropyl-(3-cyclodextrin; 80% H2O (w/v) to give either a clear solution or uniform suspension (PO only). Blood samples of about 30-40 μL were collected from peripheral veins at pre-defined time points. into pre-chilled micro-tubes containing K2EDTA as anti-coagulant and kept on ice until centrifugation. The blood samples were centrifuged at 4° C., 3000g for 15 min within half an hour of collection. Plasma was collected into 96-well plate(s), quickly frozen on dry ice and stored at −70±10° C. until LC-MS/MS analysis. The LC-MS/MS analytical method is described as follows:
The pharmacokinetics of Example Compound 1 were analyzed using the Phoenix WinNonlin software (version 6.3) based on the non-compartmental analysis model and the results are shown below in FIGS. 1 and 2 and in Tables 1 and 2. M7, M8, M9, etc. refer to particular mouse subjects used in the study.

FGFR1 = FGFR1 (Homo sapiens (Human), UniProt P11362); test: RBC NanoBRET Assay for Target Engagement in HEK293 cells transfected with FGFR1-NanoLuc Fusion vector; type: cell-based; details: 1 hour, tracer K5 1 μM
FGFR1, sequence (P11362 22-822): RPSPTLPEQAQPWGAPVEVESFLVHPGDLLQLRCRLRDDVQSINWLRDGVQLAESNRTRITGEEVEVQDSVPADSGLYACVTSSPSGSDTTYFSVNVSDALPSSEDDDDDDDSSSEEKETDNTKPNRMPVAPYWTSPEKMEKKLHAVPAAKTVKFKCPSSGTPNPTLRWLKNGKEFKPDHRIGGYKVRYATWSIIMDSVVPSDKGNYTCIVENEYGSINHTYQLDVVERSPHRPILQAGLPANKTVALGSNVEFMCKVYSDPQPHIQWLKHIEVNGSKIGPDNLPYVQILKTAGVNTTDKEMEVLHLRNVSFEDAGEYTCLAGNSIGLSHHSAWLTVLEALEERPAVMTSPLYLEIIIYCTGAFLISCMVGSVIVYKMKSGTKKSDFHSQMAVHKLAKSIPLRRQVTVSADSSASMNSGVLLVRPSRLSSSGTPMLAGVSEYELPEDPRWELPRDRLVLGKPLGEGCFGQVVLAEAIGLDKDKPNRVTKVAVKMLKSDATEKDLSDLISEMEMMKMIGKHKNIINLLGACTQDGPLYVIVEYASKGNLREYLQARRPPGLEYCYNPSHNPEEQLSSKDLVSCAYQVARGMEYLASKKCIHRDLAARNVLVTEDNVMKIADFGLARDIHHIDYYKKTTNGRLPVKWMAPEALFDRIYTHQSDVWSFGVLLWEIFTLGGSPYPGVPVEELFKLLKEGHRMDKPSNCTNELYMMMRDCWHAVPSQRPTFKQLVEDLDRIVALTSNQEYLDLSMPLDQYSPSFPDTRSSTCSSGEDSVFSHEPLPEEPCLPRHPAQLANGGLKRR
Method: Cellular Assay. The RBC NanoBRET Assay for Target Engagement was performed by Reaction Biology Corporation, 1 Great Valley Parkway, Suite 2 Malvern, PA 19355, USA. The assay was conducted in HEK293 cells transiently transfected with FGFR1-NanoLuc Fusion vector. The HEK293 cells (ATCC) were transfected with 1 μg of FGFR1-NanoLuc Fusion vector in 384-well format and the transfected cells were subsequently treated with the test compounds (starting at 10 μM, 10-dose with 3-fold dilution) for 1 hour using CTx-0294885 as the reference standard and K5 (1 μM) was used as the tracer. FGFR1 target engagement was measured and the curve fits were performed only when % NanoBret signal at the highest concentration of compounds was less than 55%.

[2] = IV 1.00 mg/kg, mouse, individual mice M7-M9
[3] = PO 10.0 mg/kg, mouse, individual mice M10-M12
[4] = male, CD-1, mouse, plasma, iv, 1 mg/kg, IV 1.00 mg/kg, individual mice M7-M9
[5] = male, CD-1, mouse, plasma, iv, 1 mg/kg, IV 1.00 mg/kg, mean
[6] = male, CD-1, mouse, plasma, po, 10 mg/kg, PO 10.0 mg/kg, mean

Structure (SMILES): COc1cc(OC)cc(N(CCNC(C)C)c2ccc3nnc(-c4cnn(C)c4)cc3c2)c1 [Example 1, N^1-(3,5-Dimethoxyphenyl)-N^2-isopropyl-N^1-(3-(1-methyl-1H-pyrazol-4-yl)cinnolin-6-yl)ethane-1,2-diamine]
- Plasma concentration ([1]; IV 1.00 mg/kg, mouse, 299 s, individual mice M7-M9): 294 ng/mL and 444 ng/mL
- Plasma concentration ([1]; IV 1.00 mg/kg, mouse, 0.250 h, individual mice M7-M9): 197 ng/mL and 143 ng/mL and 292 ng/mL
- Plasma concentration ([1]; IV 1.00 mg/kg, mouse, 0.500 h, individual mice M7-M9): 80.8 ng/mL and 86.8 ng/mL and 206 ng/mL
- Plasma concentration ([1]; IV 1.00 mg/kg, mouse, 1.00 h, individual mice M7-M9): 58.0 ng/mL and 29.3 ng/mL and 86.4 ng/mL
- Plasma concentration ([1]; IV 1.00 mg/kg, mouse, 2.00 h, individual mice M7-M9): 15.2 ng/mL and 8.83 ng/mL and 17.9 ng/mL
- Plasma concentration ([1]; IV 1.00 mg/kg, mouse, 4.00 h, individual mice M7-M9): 3.17 ng/mL and 3.64 ng/mL
- Plasma concentration ([1]; IV 1.00 mg/kg, mouse, 8.00 h, individual mice M7-M9): 1.73 ng/mL and 1.42 ng/mL
- Plasma concentration ([1]; IV 1.00 mg/kg, mouse, 24.0 h, individual mice M7-M9): 2.21 ng/mL and BQL
- AUC0-inf [1, 2]: 197 ng·h/mL and 305 ng·h/mL
- AUC0-last [1, 2]: 188 ng·h/mL and 303 ng·h/mL
- AUCExtra [1, 2]: 1.15% and 4.42% and 0.637%
- AUMCExtra [1, 2]: 10.6% and 26.9% and 6.89%
- C0 [1, 2]: 421 ng/mL and 547 ng/mL
- Cl [1, 2]: 84.8 mL/min/kg and 54.7 mL/min/kg
- MRT0-inf [1, 2]: 2.80 h and 4.58 h and 0.866 h
- MRT0-last [1, 2]: 2.53 h and 3.50 h and 0.812 h
- T1/2 [1, 2]: 1.34 h and 2.72 h and 0.948 h
- Tlast [1, 2]: 24.0 h (2×) and 8.00 h
- Vdss [1, 2]: 12.2 L/kg and 23.3 L/kg and 2.84 L/kg
- AUCExtra ([1]; IV 1.00 mg/kg, mouse, mean): 2.07%
- AUMCExtra ([1]; IV 1.00 mg/kg, mouse, mean): 14.8%
- Tlast ([1]; IV 1.00 mg/kg, mouse, mean): 18.7 h
- Plasma concentration ([1]; PO 10.0 mg/kg, mouse, 0.167 h, individual mice M10-M12): 43.6 ng/mL and 46.8 ng/mL and 147 ng/mL
- Plasma concentration ([1]; PO 10.0 mg/kg, mouse, 0.500 h, individual mice M10-M12): 71.0 ng/mL and 102 ng/mL and 269 ng/mL
- Plasma concentration ([1]; PO 10.0 mg/kg, mouse, 1.00 h, individual mice M10-M12): 47.6 ng/mL and 51.9 ng/mL and 170 ng/mL
- Plasma concentration ([1]; PO 10.0 mg/kg, mouse, 2.00 h, individual mice M10-M12): 14.1 ng/mL and 29.7 ng/mL and 89.5 ng/mL
- Plasma concentration ([1]; PO 10.0 mg/kg, mouse, 4.00 h, individual mice M10-M12): 12.5 ng/mL and 9.57 ng/mL and 22.8 ng/mL
- Plasma concentration ([1]; PO 10.0 mg/kg, mouse, 6.00 h, individual mice M10-M12): 20.7 ng/mL and 7.02 ng/mL and 4.44 ng/mL
- Plasma concentration ([1]; PO 10.0 mg/kg, mouse, 8.00 h, individual mice M10-M12): 13.2 ng/mL and 4.84 ng/mL and 1.77 ng/mL
- Plasma concentration ([1]; PO 10.0 mg/kg, mouse, 24.0 h, individual mice M10-M12): 7.49 ng/mL and 1.56 ng/mL and BQL
- AUC0-inf [1, 3]: 488 ng·h/mL and 235 ng·h/mL and 443 ng·h/mL
- AUC0-last [1, 3]: 333 ng·h/mL and 216 ng·h/mL and 441 ng·h/mL
- AUCExtra [1, 3]: 31.7% and 8.42% and 0.593%
- AUMCExtra [1, 3]: 69.7% and 41.4% and 3.41%
- Cmax [1, 3]: 71.0 ng/mL and 102 ng/mL and 269 ng/mL
- MRT0-inf [1, 3]: 20.3 h and 7.47 h and 1.65 h
- MRT0-last [1, 3]: 9.01 h and 4.78 h and 1.60 h
- T1/2 [1, 3]: 14.3 h and 8.81 h and 1.03 h
- Tlast [1, 3]: 24.0 h (2×) and 8.00 h
- AUCExtra ([1]; PO 10.0 mg/kg, mouse, mean): 13.6%
- AUMCExtra ([1]; PO 10.0 mg/kg, mouse, mean): 38.2%
- Tlast ([1]; PO 10.0 mg/kg, mouse, mean): 18.7 h
- concentration at 0.083 h ([1]; male, CD-1, mouse, plasma, iv, 1 mg/kg, IV 1.00 mg/kg, 299 s, individual mice M7-M9): 341 ng/mL
- concentration at 0.083 h ([1]; male, CD-1, mouse, plasma, iv, 1 mg/kg, IV 1.00 mg/kg, 299 s, mean): 360 ng/mL
- concentration at 0.25 h ([1]; male, CD-1, mouse, plasma, iv, 1 mg/kg, IV 1.00 mg/kg, 0.250 h, mean): 211 ng/mL
- concentration at 0.5 h ([1]; male, CD-1, mouse, plasma, iv, 1 mg/kg, IV 1.00 mg/kg, 0.500 h, mean): 125 ng/mL
- concentration at 1 h ([1]; male, CD-1, mouse, plasma, iv, 1 mg/kg, IV 1.00 mg/kg, 1.00 h, mean): 57.9 ng/mL
- concentration at 2 h ([1]; male, CD-1, mouse, plasma, iv, 1 mg/kg, IV 1.00 mg/kg, 2.00 h, mean): 14 ng/mL
- concentration at 4 h ([1]; male, CD-1, mouse, plasma, iv, 1 mg/kg, IV 1.00 mg/kg, 4.00 h, individual mice M7-M9): 3.72 ng/mL
- concentration at 4 h ([1]; male, CD-1, mouse, plasma, iv, 1 mg/kg, IV 1.00 mg/kg, 4.00 h, mean): 3.51 ng/mL
- concentration at 8 h ([1]; male, CD-1, mouse, plasma, iv, 1 mg/kg, IV 1.00 mg/kg, 8.00 h, individual mice M7-M9): 1.65 ng/mL
- concentration at 8 h ([1]; male, CD-1, mouse, plasma, iv, 1 mg/kg, IV 1.00 mg/kg, 8.00 h, mean): 1.6 ng/mL
- concentration at 24 h ([1]; male, CD-1, mouse, plasma, iv, 1 mg/kg, IV 1.00 mg/kg, 24.0 h, individual mice M7-M9): 1.36 ng/mL
- concentration at 24 h ([1]; male, CD-1, mouse, plasma, iv, 1 mg/kg, IV 1.00 mg/kg, 24.0 h, mean): 1.79 ng/mL
- AUC(0-t) [1, 4]: 226 ng·h/mL
- clearance [1, 4]: 73 mL/min/kg
- AUC0-inf ([1]; male, CD-1, mouse, plasma, iv, 1 mg/kg, IV 1.00 mg/kg, individual mice M7-M9, read-out: AUC0-inf): 228 ng·h/mL
- C0 ([1]; male, CD-1, mouse, plasma, iv, 1 mg/kg, IV 1.00 mg/kg, individual mice M7-M9, read-out: C0): 448 ng/mL
- AUC(0-t) [1, 5]: 239 ng·h/mL
- clearance [1, 5]: 70.8 mL/min/kg
- half-life [1, 5]: 100 min
- AUC0-inf ([1]; male, CD-1, mouse, plasma, iv, 1 mg/kg, IV 1.00 mg/kg, mean, read-out: AUC0-inf): 243 ng·h/mL
- C0 ([1]; male, CD-1, mouse, plasma, iv, 1 mg/kg, IV 1.00 mg/kg, mean, read-out: C0): 472 ng/mL
- MRT inf [1, 5]: 2.75 h
- MRT last [1, 5]: 2.28 h
- Vd ([1]; male, CD-1, mouse, plasma, iv, 1 mg/kg, IV 1.00 mg/kg, mean, read-out: Vdss): 12.8 L/kg
- concentration at 0.167 h ([1]; male, CD-1, mouse, plasma, po, 10 mg/kg, PO 10.0 mg/kg, 0.167 h, mean): 79.1 ng/mL
- concentration at 0.5 h ([1]; male, CD-1, mouse, plasma, po, 10 mg/kg, PO 10.0 mg/kg, 0.500 h, mean): 147 ng/mL
- concentration at 1 h ([1]; male, CD-1, mouse, plasma, po, 10 mg/kg, PO 10.0 mg/kg, 1.00 h, mean): 89.8 ng/mL
- concentration at 2 h ([1]; male, CD-1, mouse, plasma, po, 10 mg/kg, PO 10.0 mg/kg, 2.00 h, mean): 44.4 ng/mL
- concentration at 4 h ([1]; male, CD-1, mouse, plasma, po, 10 mg/kg, PO 10.0 mg/kg, 4.00 h, mean): 15 ng/mL
- concentration at 6 h ([1]; male, CD-1, mouse, plasma, po, 10 mg/kg, PO 10.0 mg/kg, 6.00 h, mean): 10.7 ng/mL
- concentration at 8 h ([1]; male, CD-1, mouse, plasma, po, 10 mg/kg, PO 10.0 mg/kg, 8.00 h, mean): 6.6 ng/mL
- concentration at 24 h ([1]; male, CD-1, mouse, plasma, po, 10 mg/kg, PO 10.0 mg/kg, 24.0 h, mean): 4.53 ng/mL
- AUC(0-t) [1, 6]: 330 ng·h/mL
- half-life [1, 6]: 483 min
- AUC0-inf ([1]; male, CD-1, mouse, plasma, po, 10 mg/kg, PO 10.0 mg/kg, mean, read-out: AUC0-inf): 389 ng·h/mL
- Cmax ([1]; male, CD-1, mouse, plasma, po, 10 mg/kg, PO 10.0 mg/kg, mean, read-out: Cmax): 147 ng/mL
- MRT inf [1, 6]: 9.81 h
- MRT last [1, 6]: 5.13 h
- bioavailability ([1]; male, CD-1, plasma, PO 10.0 mg/kg vs IV 1.00 mg/kg, mouse, calculated from AUC): 13.8%
- Tmax ([1]; male, CD-1, plasma, PO 10.0 mg/kg, mouse, individual mice M10-M12): 30 min
- IC50 (FGFR1): 9.5 nM

From patent publication US20240002365A1, “PYRIDAZINE AND 1,2,4-TRIAZINE DERIVATIVES AS FGFR KINASE INHIBITORS” (BETA PHARMA, INC., priority 2020, published 2024)
